The structures appear in SMILES notation.

Data set [1] concerns Trifoliumre pensL. The experiment in a line: Post-emergence herbicidal activity test (stem and leaf spray, pot culture). The settings on record: dosage 10 g/mu, 3 weeks after spraying. The class given is in vivo. The gist of the method:
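Pot-grown weeds in loam (pH 7), greenhouse at 20–30 °C, sprayed once post-emergence at the 2–3-leaf stage. Compound in acetone with Tween 80 plus methyl oleate oil (1.5 L/ha), applied at 10, 5 and 2.5 g/mu by spray tower. Effect scored 3 weeks after spraying, averaged over three repeats.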

For data set [2], the system named is Echinochloa crusgalli. Described as above. The settings on record: dosage 10 g/mu, 3 weeks after spraying. The class given is in vivo. A digest of the protocol:
(§1)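 Graded 0–5 on fresh-weight growth control rate 3 weeks after a single spray-tower application at 10, 5 or 2.5 g/mu. Compounds in acetone with Tween 80 and methyl oleate synergist (1.5 liters/ha), applied to greenhouse weeds at 2- to 3-leaf stage.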

For data set [3], the system named is Setaria viridis. Described as above. Type of data set: in vivo. The settings on record: dosage 10 g/mu, 3 weeks after spraying. A digest of the protocol: as §1
Data set [4] concerns Portulaca oleracea. Described as above. The settings on record: dosage 10 g/mu, 3 weeks after spraying. The class given is in vivo. The gist of the method:
as §1

In data set [5] the test system is Amaranthus retroflexus. The description is as above. Type of data set: in vivo. The settings on record: dosage 10 g/mu, 3 weeks after spraying. The gist of the method: as §1
Data set [6] relates to Abutilon theophrasti. Described as above. The class given is in vivo. The note with it: dosage 10 g/mu, 3 weeks after spraying. A digest of the protocol: as §1
Data set [7] has as its system broad-leaf weeds. The experiment in a line: Post-emergence herbicidal activity test, broad-leaf weeds as a group. The class given is in vivo. The note with it: 10 a.i.g/mu. How it is done: The weeds were cultivated in a 180 mm×140 mm plastic nutrient pot by a pot-culture method, placed in an enamel tray, and the plastic nutrient pots were filled with surface soil (⅘ of a depth) collected from a farmland and air-dried and sieved, and a soil humidity was controlled at 20% in the initial stage. Weed seeds with plump and uniform grains were selected, soaked in warm water at 25° C. for 6 h, and germinated in a biochemical incubator (dark) at 28° C. The freshly exposed weed seeds were evenly placed on the soil surface, and then covered with 0.5 cm to 1 cm of soil according to the size of the seeds. The weeds are cultivated in a controlled sunlight greenhouse at 20° C. to 30° C., under natural light, and a relative humidity of 57% to 72%. […]
2 weeks after sowing, the test plants were treated at the 2- to 3-leaf stage: the compounds of the present disclosure for testing were dissolved in acetone separately, and added with Tween 80, an emulsifiable oil of 1.5 liters/ha methyl oleate was added as a synergist, and an obtained mixture was diluted with certain water to a certain concentration solution. […] After spraying, the weeds were cultivated in the greenhouse for 3 weeks, and the experimental effects on the weeds were counted. […]

In turn, `O=C(Nc1cc(N2C(=O)C3=C(CCCC3)C2=O)c(F)cc1Cl)C1CC1` [Compound D8, N-(2-chloro-5-(1,3-dioxo-1,3,4,5,6,7-hexahydro-2H-isoindole-2-yl)-4-fluorophenyl)cyclopropanecarboxamide] registered a melting point of 208 to 210 °C. Besides, the “Post-emergence herbicidal activity, Trifoliumre pensL. (grade)” value in data set [1] was 5 (Grade 5: the growth control rate is greater than or equal to 85%). Also, the “Post-emergence herbicidal activity, E. crusgalli (grade)” value in data set [2] was 3 (Grade 3: the growth control rate is greater than or equal to 40% and less than 60%). Also, in data set [3], the “Post-emergence herbicidal activity, S. viridis (grade)” value was 3 (Grade 3: the growth control rate is greater than or equal to 40% and less than 60%). Besides, the “Post-emergence herbicidal activity, P. oleracea (grade)” value in data set [4] is given as 5 (Grade 5: the growth control rate is greater than or equal to 85%). The “Post-emergence herbicidal activity, A. retroflexus (grade)” value in data set [5] was 5 (Grade 5: the growth control rate is greater than or equal to 85%). Further, in data set [6], the “Post-emergence herbicidal activity, A. theophrasti (grade)” value is recorded as 5 (Grade 5: the growth control rate is greater than or equal to 85%).

For the compound `O=C(Nc1cc(N2C(=O)C3=C(CCCC3)C2=O)c(F)cc1Cl)C1CCC1` [Compound D9, N-(2-chloro-5-(1,3-dioxo-1,3,4,5,6,7-hexahydro-2H-isoindole-2-yl)-4-fluorophenyl)cyclobutanecarboxamide], the melting point is 145 to 147 °C. The “Post-emergence herbicidal activity, Trifoliumre pensL. (grade)” value in data set [1] is listed as 5 (Grade 5: the growth control rate is greater than or equal to 85%). Further, the “Post-emergence herbicidal activity, E. crusgalli (grade)” value in data set [2] was 3 (Grade 3: the growth control rate is greater than or equal to 40% and less than 60%). Besides, in data set [3], the “Post-emergence herbicidal activity, S. viridis (grade)” value is 3 (Grade 3: the growth control rate is greater than or equal to 40% and less than 60%). Further, the “Post-emergence herbicidal activity, P. oleracea (grade)” value in data set [4] is listed as 5 (Grade 5: the growth control rate is greater than or equal to 85%). In addition, the “Post-emergence herbicidal activity, A. retroflexus (grade)” value in data set [5] is 5 (Grade 5: the growth control rate is greater than or equal to 85%). In addition, the “Post-emergence herbicidal activity, A. theophrasti (grade)” value in data set [6] is 5 (Grade 5: the growth control rate is greater than or equal to 85%).

For `O=C(Nc1cc(N2C(=O)C3=C(CCCC3)C2=O)c(F)cc1Cl)C1CCCCC1` [Compound D10, N-(2-chloro-5-(1,3-dioxo-1,3,4,5,6,7-hexahydro-2H-isoindole-2-yl)-4-fluorophenyl)cyclohexanecarboxamide], the melting point fell in the range of 93 to 97 °C. Also, in data set [1], the “Post-emergence herbicidal activity, Trifoliumre pensL. (grade)” value was 5 (Grade 5: the growth control rate is greater than or equal to 85%). For the same compound, the “Post-emergence herbicidal activity, E. crusgalli (grade)” value in data set [2] is 3 (Grade 3: the growth control rate is greater than or equal to 40% and less than 60%). Besides, the “Post-emergence herbicidal activity, S. viridis (grade)” value in data set [3] is 4 (Grade 4: the growth control rate is greater than or equal to 60% and less than 85%). In addition, the “Post-emergence herbicidal activity, P. oleracea (grade)” value in data set [4] was 5 (Grade 5: the growth control rate is greater than or equal to 85%). The “Post-emergence herbicidal activity, A. retroflexus (grade)” value in data set [5] is on record as 5 (Grade 5: the growth control rate is greater than or equal to 85%). In addition, the “Post-emergence herbicidal activity, A. theophrasti (grade)” value in data set [6] is listed as 5 (Grade 5: the growth control rate is greater than or equal to 85%).

As to `O=C(COC(=O)c1cc(N2C(=O)C3=C(CCCC3)C2=O)c(F)cc1Cl)c1ccc(Cl)cc1` [Compound E1, 2-(4-chlorophenyl)-2-oxoethyl-2-chloro-5-(1,3-dioxo-1,3,4,5,6,7-hexahydro-2H-isoindole-2-yl)-4-fluorobenzoate], the melting point fell in the range of 138 to 141 °C. Moreover, the “Post-emergence herbicidal activity, Trifoliumre pensL. (grade)” value in data set [1] is on record as 5 (Grade 5: the growth control rate is greater than or equal to 85%). In addition, the “Post-emergence herbicidal activity, E. crusgalli (grade)” value in data set [2] is 3 (Grade 3: the growth control rate is greater than or equal to 40% and less than 60%). The “Post-emergence herbicidal activity, S. viridis (grade)” value in data set [3] is 4 (Grade 4: the growth control rate is greater than or equal to 60% and less than 85%). The “Post-emergence herbicidal activity, P. oleracea (grade)” value in data set [4] is 5 (Grade 5: the growth control rate is greater than or equal to 85%). Moreover, in data set [5], the “Post-emergence herbicidal activity, A. retroflexus (grade)” value is 5 (Grade 5: the growth control rate is greater than or equal to 85%). For the same compound, the “Post-emergence herbicidal activity, A. theophrasti (grade)” value in data set [6] is recorded as 5 (Grade 5: the growth control rate is greater than or equal to 85%).

Compound `O=C(COC(=O)c1cc(N2C(=O)C3=C(CCCC3)C2=O)c(F)cc1Cl)c1ccccc1` [Compound E2, 2-oxo-2-phenylethyl-2-chloro-5-(1,3-dioxo-1,3,4,5,6,7-hexahydro-2H-isoindole-2-yl)-4-fluorobenzoate] displayed a melting point of 133 to 136 °C. Also, in data set [1], the “Post-emergence herbicidal activity, Trifoliumre pensL. (grade)” value was 4 (Grade 4: the growth control rate is greater than or equal to 60% and less than 85%). For the same compound, in data set [2], the “Post-emergence herbicidal activity, E. crusgalli (grade)” value was 3 (Grade 3: the growth control rate is greater than or equal to 40% and less than 60%). Besides, in data set [3], the “Post-emergence herbicidal activity, S. viridis (grade)” value was 4 (Grade 4: the growth control rate is greater than or equal to 60% and less than 85%). Also, in data set [4], the “Post-emergence herbicidal activity, P. oleracea (grade)” value was 5 (Grade 5: the growth control rate is greater than or equal to 85%). For the same compound, in data set [5], the “Post-emergence herbicidal activity, A. retroflexus (grade)” value is reported as 5 (Grade 5: the growth control rate is greater than or equal to 85%). Also, the “Post-emergence herbicidal activity, A. theophrasti (grade)” value in data set [6] is given as 5 (Grade 5: the growth control rate is greater than or equal to 85%).

On to `C#CCN1C(=O)COc2cc(F)c(N3C(=O)C4=C(CCCC4)C3=O)cc21` [flumioxazin], for which the “control effect against broad-leaf weeds” value in data set [7] is on record as 100%.

These data come from patent US20240300932A1, “N-PHENYLIMINE DERIVATIVE AND PREPARATION METHOD AND USE THEREOF” (Guizhou University, priority 2023, published 2024).
